Where “and” joins values, the source holds several entries; their conditions need not be identical. Equal entries are not always repeated.
target: T1, dipeptidyl peptidase IV from porcine kidney (Sus scrofa, UniProt P22411); experiment: Ki determination, DPIV inhibition (glycylprolyl-4-nitroaniline); assay type: biochemical; settings: HEPES pH7.6, 30° C.
T1 construct: dipeptidyl peptidase IV from porcine kidney; from tissue; host or cells: porcine kidney
T1 sequence (P22411 whole entry): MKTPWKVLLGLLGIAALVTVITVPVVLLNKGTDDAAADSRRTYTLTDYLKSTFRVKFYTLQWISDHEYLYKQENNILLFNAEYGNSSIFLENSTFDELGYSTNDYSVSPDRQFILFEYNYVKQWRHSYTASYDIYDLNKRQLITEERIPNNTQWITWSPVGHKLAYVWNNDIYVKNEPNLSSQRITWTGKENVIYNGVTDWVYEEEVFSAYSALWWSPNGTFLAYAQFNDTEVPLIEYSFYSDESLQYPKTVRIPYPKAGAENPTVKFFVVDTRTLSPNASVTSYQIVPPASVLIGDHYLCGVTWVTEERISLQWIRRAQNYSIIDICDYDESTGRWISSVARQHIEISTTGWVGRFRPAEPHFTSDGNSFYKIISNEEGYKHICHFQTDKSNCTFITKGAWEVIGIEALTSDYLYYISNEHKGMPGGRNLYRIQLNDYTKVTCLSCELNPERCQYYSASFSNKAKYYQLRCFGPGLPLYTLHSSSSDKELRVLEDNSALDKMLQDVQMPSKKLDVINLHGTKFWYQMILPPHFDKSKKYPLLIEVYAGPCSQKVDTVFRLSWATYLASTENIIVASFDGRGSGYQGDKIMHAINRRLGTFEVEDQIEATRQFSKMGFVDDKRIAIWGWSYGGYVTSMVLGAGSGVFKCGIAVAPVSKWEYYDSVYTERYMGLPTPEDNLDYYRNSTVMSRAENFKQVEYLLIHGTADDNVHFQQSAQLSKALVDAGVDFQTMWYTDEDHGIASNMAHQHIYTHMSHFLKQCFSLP

Going from `NC(=O)CCC(N)C(=O)N1CCSC1` (centres unmarked) [Gln-Thia, glutaminyl thiazolidine] to `NC(=O)CC(N)C(=O)N1CCSC1` (centres unmarked) [H-Asn-thiazolidine], the Ki rises from 1.21 µM to 3.5 µM (2.9-fold).

Going from `NC(=O)CC(N)C(=O)N1CCCC1` (centres unmarked) [H-Asn-pyrrolidine] to `NC(CC(=O)O)C(=O)N1CCCC1` (centres unmarked) [H-Asp-pyrrolidine], the Ki falls from 12 µM to 0.014 µM (860-fold).

Going from `NC(CC(=O)NO)C(=O)N1CCCC1` (centres unmarked) [H-Asp(NHOH)-pyrrolidine] to `NC(CCC(=O)NO)C(=O)N1CCCC1` (centres unmarked) [H-Glu(NHOH)-pyrrolidine], the Ki falls from 13 µM to 2.8 µM (4.6-fold).

Compared with `NC(CC(=O)NO)C(=O)N1CCSC1` (centres unmarked) [H-Asp(NHOH)-thiazolidine], `NC(CCC(=O)NO)C(=O)N1CCSC1` (centres unmarked) [H-Glu(NHOH)-thiazolidine] is 5.2-fold lower in Ki: 8.8 µM for the first, 1.7 µM for the second.

Compared with `NC(CC(=O)O)C(=O)N1CCSC1` (centres unmarked) [H-Asp-thiazolidine], `NC(Cc1c[nH]cn1)C(=O)N1CCSC1` (centres unmarked) [H-His-thiazolidine] is 1.6-fold lower in Ki: 2.9 µM for the first, 1.8 µM for the second.

Going from `N[C@@H](CCC(=O)NCC(=O)NCC(=O)NCC(=O)O)C(=O)N1CCSC1` [H-Glu(Gly3)-Thia] to `N[C@@H](CCC(=O)NCC(=O)NCC(=O)NCC(=O)NCC(=O)NCC(=O)O)C(=O)N1CCSC1` [H-Glu(Gly5)-Thia], the Ki rises from 0.0192 µM to 0.0993 µM (5.2-fold). The first binds more tightly here.

`NC(Cc1c[nH]cn1)C(=O)N1CCCC1` (centres unmarked) [H-His-pyrrolidine] and `CCC(C)C(N)C(=O)N1CC1` (centres unmarked) [H-Ile-azididine] are within 1.5-fold of each other in Ki: 3.5 µM for the first, 3.1 µM for the second.

Compared with `CC(C)C(N)C(=O)N1CCSC1` (centres unmarked) [H-Val-thiazolidine], `CCC(C)C(N)C(=O)C1CCCCC1` (centres unmarked) [Ile-cyclohexyl ketone] is 210-fold higher in Ki: 0.27 µM for the first, 56.8 µM for the second.

In the case of `N[C@@H](CCC(=O)O)C(=O)N1CCSC1` [H-Glu-thiazolidine], the Ki is reported as 0.62 µM and 0.61 µM.

target: T2, porcine dipeptidyl peptidase II (DP II) (Sus scrofa, UniProt A0A5G2QK18); experiment: Inhibition of DPIV-like enzymes, dipeptidyl peptidase II; assay type: biochemical; settings: lysylalanylaminomethylcoumarine, 30° C.; read-out: Ki against porcine dipeptidyl peptidase II
T2 construct: The enzyme used was purified from porcine kidney; from tissue; host or cells: porcine kidney
T2 sequence (A0A5G2QK18 28-502): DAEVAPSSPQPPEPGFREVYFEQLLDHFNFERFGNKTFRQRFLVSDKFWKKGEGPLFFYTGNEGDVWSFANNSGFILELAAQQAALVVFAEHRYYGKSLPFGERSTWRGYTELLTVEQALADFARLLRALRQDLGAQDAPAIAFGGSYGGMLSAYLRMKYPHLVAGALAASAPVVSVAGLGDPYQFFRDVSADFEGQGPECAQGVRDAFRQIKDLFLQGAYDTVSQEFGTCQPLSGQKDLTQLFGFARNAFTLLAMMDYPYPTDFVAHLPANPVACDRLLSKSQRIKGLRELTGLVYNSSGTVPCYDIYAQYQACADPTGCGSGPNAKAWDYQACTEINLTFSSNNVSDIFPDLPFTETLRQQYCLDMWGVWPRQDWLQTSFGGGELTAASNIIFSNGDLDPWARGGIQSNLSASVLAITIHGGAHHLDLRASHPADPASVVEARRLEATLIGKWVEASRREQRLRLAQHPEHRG
Method: DP II (3.4.14.2) releases N-terminal dipeptides from oligopeptides if the N-terminus is not protonated (McDonald, J. K., Ellis, S. & Reilly, T. J., 1966, J. Biol. Chem., 241, 1494-1501). Pro and Ala in Pi-position are preferred residues. The enzyme activity is described as DPIV-like activity, but DP II has an acidic pH-optimum. The enzyme used was purified from porcine kidney.
100 μl glutaminyl pyrrolidine or glutaminyl thiazolidine in an concentration range of 1*10^−4 M-5*10^−8 M were admixed with 100 μl μl buffer solution (40 mM HEPES, pH7.6, 0.015% Brij, 1 mM DTT), 50 μl lysylalanylaminomethylcoumarine solution (5 mM) and 20 μl porcine DP II (250fold diluted in buffer solution). Fluorescence measurement was performed at 30° C. and λexiatation=380 nm, λemission=465 nm for 25 min using a plate reader (HTS7000plus, Applied Biosystems, Weiterstadt, Germany).

`NC(=O)CCC(N)C(=O)N1CCSC1` (centres unmarked) [Gln-Thia, glutaminyl thiazolidine] gave a Ki of 10.7 µM.

tested on: PepT1; experiment: Transport at PepT1-expressing oocytes of X. leavis, two-electrode voltage clamp; assay type: cell-based; settings: not given
Source text: (§1) Side chain-modified glutamyl thiazolidines having a structure H-Glu(X)-Thia were synthesised, with polyethylene glycol or glycine oligomers of various chain lengths being used as X (see Method A of example for description of synthesis). The binding characteristics of those derivatives and their transportability by the peptide transporter PepT1 were investigated.

`NC(CCC(=O)NO)C(=O)N1CCSC1` (centres unmarked) [H-Glu(NHOH)-thiazolidine] and `N[C@@H](CCC(=O)O)C(=O)N1CCSC1` [H-Glu-thiazolidine] are within error of each other in “Imax, inward currents generated by the transport” value: 42 ± 11 nA for the first, 35 ± 13 nA for the second.

target: purified porcine DPIV (Sus scrofa, UniProt P22411); experiment: Determination of IC50 values, DPIV (Gly-Pro-pNA); assay type: biochemical; settings: Gly-Pro-pNA 0.4 mM, HEPES pH7.6, 30° C.
Sequence (P22411 whole entry): as the sequence (P22411 whole entry) above
Method: 100 μl inhibitor stock solution were mixed with 100 μl buffer (HEPES pH7.6) and 50 μl substrate (Gly-Pro-pNA, final concentration 0.4 mM) and preincubated at 30° C. Reaction was started by addition of 20 μl purified porcine DPIV. Formation of the product pNA was measured at 405 nm over 10 min using the HTS 7000Plus plate reader (Perkin Elmer) and slopes were calculated. The final inhibitor concentrations ranged between 1 mM and 30 nM. For calculation of IC50 GraFit 4.0.13 (Erithacus Software) was used.

First: NC(=O)CCC(N)C(=O)N1CCSC1 (centres unmarked) [Gln-Thia, glutaminyl thiazolidine]
Second: CCC(C)C(N)C(=O)C1CCCCC1 (centres unmarked) [Ile-cyclohexyl ketone]
The IC50 of the first is 1.8-fold higher: 527 µM for the first, 293 µM for the second. The second is the more potent here.

target: T3, PepT1 (Oryctolagus cuniculus, UniProt P36836); experiment: Inhibition of 3H-D-Phe-Ala binding to PepT1-expressing P. pastoris cells; settings: not given
T3 construct: expressed in transfected cells; host or cells: Pichia pastoris cells expressing PepT1 (per the assay description)
T3 sequence (P36836 1-707): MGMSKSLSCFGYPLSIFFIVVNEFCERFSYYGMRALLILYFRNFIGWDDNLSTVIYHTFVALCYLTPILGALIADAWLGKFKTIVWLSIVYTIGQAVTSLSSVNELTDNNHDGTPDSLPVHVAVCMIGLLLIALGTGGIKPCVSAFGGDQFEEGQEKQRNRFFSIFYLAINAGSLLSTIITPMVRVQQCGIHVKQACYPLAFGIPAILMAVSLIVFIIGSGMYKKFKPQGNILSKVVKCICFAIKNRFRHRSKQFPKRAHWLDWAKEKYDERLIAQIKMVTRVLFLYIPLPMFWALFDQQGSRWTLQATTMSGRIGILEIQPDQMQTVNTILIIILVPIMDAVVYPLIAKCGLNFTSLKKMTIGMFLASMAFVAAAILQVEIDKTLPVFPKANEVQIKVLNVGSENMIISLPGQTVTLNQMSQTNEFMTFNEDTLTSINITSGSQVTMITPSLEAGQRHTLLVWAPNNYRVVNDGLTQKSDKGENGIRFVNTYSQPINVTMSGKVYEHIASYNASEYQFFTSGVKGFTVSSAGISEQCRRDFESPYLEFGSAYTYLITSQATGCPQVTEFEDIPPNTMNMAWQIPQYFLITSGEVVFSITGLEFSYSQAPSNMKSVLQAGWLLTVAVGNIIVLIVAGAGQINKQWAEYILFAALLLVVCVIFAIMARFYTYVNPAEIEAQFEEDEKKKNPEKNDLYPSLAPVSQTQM
Source text: as §1

Going from `N[C@@H](CCC(=O)NCC(=O)NCC(=O)NCC(=O)O)C(=O)N1CCSC1` [H-Glu(Gly3)-Thia] to `N[C@@H](CCC(=O)NCC(=O)NCC(=O)NCC(=O)NCC(=O)NCC(=O)O)C(=O)N1CCSC1` [H-Glu(Gly5)-Thia], the EC50 rises from 8540 µM to greater than 10000 µM. The first is the more potent here.

First: NC(CCC(=O)NO)C(=O)N1CCSC1 (centres unmarked) [H-Glu(NHOH)-thiazolidine]
Second: N[C@@H](CCC(=O)O)C(=O)N1CCSC1 [H-Glu-thiazolidine]
The EC50 of the first is 2.9-fold higher: 3180 µM for the first, 1100 µM for the second.

— patent publication US7368576B2, “Dipeptidyl peptidase IV inhibitors and their uses as anti-cancer agents” (Probiodrug AG, priority 2001, dated 2008)
